From US20250114369A1, “COMPOUNDS AND METHODS FOR TREATMENT OF VIRAL INFECTIONS” (Gilead Sciences, Inc., priority 2023, published 2025)
Values after ≈ are worked out from the molar mass of the structure shown.

What was measured:
[1] = test system: Respiratory syncytial virus recombinant with luciferase (RSV-Luc5); assay: microbe, parasite or virus in culture; assay type: cell-based; conditions: human respiratory syncytial virus, NHBE, 72 h, read-out: RSV NHBE EC50 (nM)
[2] = test system: SARS Coronavirus 2 recombinant with NanoLuc (SARS-CoV2-NLuc); assay: organism not typed; assay type: cell-based; conditions: 48 h
[3] = in vitro; assay type: cell-based; conditions: human
Method: Cytotoxicity of the compounds was determined in uninfected cells using the cell viability reagent in a similar fashion as described before for other cell types (Cihlar et al., Antimicrob Agents Chemother. 2008, 52(2):655-65). HEp-2 (1.5×10^3 cells/well) and MT-4 (2×10^3 cells/well) cells were plated in 384-well plates and incubated with the appropriate medium containing 3-fold serially diluted compound ranging from 15 nM to 100,000 nM. Cells were cultured for 4-5 days at 37° C. Following the incubation, the cells were allowed to equilibrate to 25° C., and cell viability was determined by adding Cell-Titer Glo viability reagent. The mixture was incubated for 10 min, and the luminescence signal was quantified using an Envision plate reader. Untreated cell and cells treated at 2 μM puromycin (Sigma, St. Louis, MO) serve as […] cell viability control, respectively. The percent of cell viability was calculated for each tested compound concentration relative to the 0% and 100% controls and the CC50 value was determined by non-linear regression as a compound concentration reducing the cell viability by […].

[4] = in vitro; assay type: in vitro ADME; conditions: human, s9, pH 7.4
Method: Duplicate aliquots of test compound or positive control substrate (GS-7340) were added to PMSF-free Intestinal S9 fractions diluted with 100 mM phosphate buffered saline, pH 7.4, to obtain a protein concentration of 1.0 mg/mL. The S9 metabolic reactions were initiated by the addition of the substrates to the S9 reaction mixture to a final concentration of 2 μM. At 0, 10, 20, 30, 60 and 120 min, 25 μL aliquots of the reaction mixture were transferred to plates containing 225 μl of IS/Q solution. After quenching, the plates were centrifuged at 3000×g for 30 minutes, and 150 μL aliquots of each supernatant were diluted with 150 μL water. Aliquots (10 μL) of the diluted supernatant were analyzed on a Thermo Q-Exactive mass spectrometer as described below. Quantification of test compounds and controls was performed by analyte/internal standard peak area ratio (PAR) values measured on a Thermo Q-Exactive mass spectrometer coupled to a Dionex UltiMate 3000 HPLC with a Leap Technologies HTC PAL autosampler. The column used was a Thermo Hypersil GOLD (1.9 μm particle size, 2.1×50 mm). Mobile phase A consisted of […] formic acid in water. Mobile phase B consisted of 0.1% (v/v) formic acid in acetonitrile. Elution of analytes was achieved by a series of linear gradients of acetonitrile in water containing 0.1% (v/v) formic acid. The mass spectrometer was calibrated on a weekly basis and mass tolerance of 5 ppm was used.

[5] = in vitro; assay type: in vitro ADME; conditions: human, s9, pH 7.4; remark: listed apart in the source
Method: Duplicate aliquots of test compound or positive control substrate (GS-7340) were added to S9 stock diluted with 100 mM potassium phosphate buffer, pH 7.4, to obtain a protein concentration of 2.4 mg/mL. The S9 metabolic reactions were initiated by the addition of the substrates to the S9 reaction mixture to a final concentration of 2 μM. At 2, 12, 25, 45, 65 and 90 min, 25 μL aliquots of the reaction mixture were transferred to plates containing 225 μl of IS/Q solution. After quenching, the plates were centrifuged at 3000×g for 30 minutes, and 150 μL aliquots of each supernatant were diluted with 150 μL water. Aliquots (10 μL) of the diluted supernatant were analyzed on a Thermo Q-Exactive mass spectrometer as described below. Quantification of test compounds and controls was performed by analyte/internal standard peak area ratio (PAR) values measured on a Thermo Q-Exactive mass spectrometer coupled to a Dionex UltiMate 3000 HPLC with a Leap Technologies HTC PAL autosampler. The column used was a Thermo Hypersil GOLD (1.9 μm particle size, 2.1×50 mm). Mobile phase A consisted of […] formic acid in water. Mobile phase B consisted of 0.1% (v/v) formic acid in acetonitrile. Elution of analytes was achieved by a series of linear gradients of acetonitrile in water containing 0.1% (v/v) formic acid. The mass spectrometer was calibrated on a weekly basis and mass tolerance of 5 ppm was used.

[6] = assay type: in vitro ADME; conditions: 2 μM
Method: Duplicate aliquots of plasma were warmed to 37° C. and the metabolic reactions initiated by the addition of test compound (6 μL of 0.1 mM DMSO stock) or plasma stability standard (GS-7340) to obtain a final substrate concentration of 2 μM. At 0.05, 0.5, 1, 2, 3 and 4 hr, 25 μL aliquots of the reaction mixture were transferred to plates containing 225 μl of IS/Q quenching solution. After quenching, the plates were centrifuged at 3000×g for 30 minutes, and 150 μL supernatant was diluted with 150 μL water. Aliquots (10 μL) of the diluted supernatant were analyzed on a Thermo Q-Exactive mass spectrometer as described below. Quantification of test compounds and controls was performed by analyte/internal standard peak area ratio (PAR) values measured on a Thermo Q-Exactive mass spectrometer coupled to a Dionex UltiMate 3000 HPLC with a Leap Technologies HTC PAL autosampler. The column used was a Thermo Hypersil GOLD (1.9 μm particle size, 2.1×50 mm). Mobile phase A consisted of […] formic acid in water. Mobile phase B consisted of 0.1% (v/v) formic acid in acetonitrile. Elution of analytes was achieved by a series of linear gradients of acetonitrile in water containing 0.1% (v/v) formic acid. The mass spectrometer was calibrated on a weekly basis and mass tolerance of 5 ppm was used.

[7] = test system: Caco-2 cells (clone C2BBel); assay: CACO-2 permeability; assay type: in vitro ADME; conditions: donor pH 6.5, receiver pH 7.4; for DM Caco2 A to B: forward (A to B); for DM Caco2 B to A: reverse (B to A)
Method: Pre-plated Caco-2 cells (clone C2BBel) were obtained from Sigma-Aldrich, Inc. (Atlanta, GA). Cell monolayers were grown to confluence on collagen-coated, microporous, polycarbonate membranes in 24-well transwell plates for 21 days. The permeability assay buffer in donor wells was Hanks' balanced salt solution (HBSS) containing 10 mM HEPES and 15 mM glucose at a pH of 6.5 containing 200 μM BNPP. The receiver wells used HBSS buffer containing 10 mM HEPES and 15 mM glucose at a pH of 7.4 and supplemented with 1% BSA. After an initial equilibration with transport buffer, TEER values were read to test membrane integrity. The experiment was started by the addition of buffers containing test compounds, 200 μl and 1000 μl in the apical and basolateral chamber, respectively. At 0- and 2-hour post dose, 10 μL was sampled from donor compartment and was immediately diluted in 190 μL of 20% methanol. At 1 and 2 hours post dose, 100 μl of solution was taken from the receiver compartments and was immediately diluted in 100 μl of 20% methanol. Removed buffer was replaced with fresh buffer and a correction was applied to all calculations for the removed material. Each compound was tested in 2 separate replicate wells for each condition. All samples were then extracted with 400 μl 100% acetonitrile with internal standard to precipitate protein. Cells were dosed on the apical or basolateral side to determine forward (A to B) and reverse (B to A) permeability. To test for non-specific binding and compound instability, the total amount of drug was quantitated at the end of the experiment and compared to the material present in the original dosing solution as a percent recovery. Formation of the parent compound (GS-441524; Reference Compound A) was monitored in assay wells dosed with the prodrug. Samples were analyzed by LC-MS/MS.

[8] = physchem; assay type: physicochemical; conditions: pH 7, aqueous buffer, thermodynamic from solid
Method: The aqueous solubility of compounds over a time of 24 hours was assessed. Solubility was determined at ambient temperature in a 50 mM phosphate buffered pH7 solution with 150 mM NaCl (to achieve isotonicity). Solids were added to the buffered solution in 1.5-mL Eppendorf tubes, vortexed for 1 minute, then agitated for 24 hours in an Eppendorf ThermoMixer C. To determine concentration in solution, the suspensions were centrifuged for 15 min at 15,000 rpm. Supernatants were diluted to a volume of 1 mL with 30:70 v/v acetonitrile:water. All diluted supernatants were analyzed by UPLC using a Waters Acquity UPLC with a PDA UV detector.
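Throughout, for CC50: uninfected MT-4 cells over 4-5 days by CellTiter-Glo.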

SMILES | EC50 [1] [nM] | EC50 [2] [µM] | CC50 [3] [µM] | half-life at 2 μM [4] [h] | half-life at 2 μM [5] [h] | STA Human Plasma 37 [6] | DM Caco2 A to B [7] | DM Caco2 B to A [7] | solubility thermodynamic at 24 h [8] [µg/mL]
CC(=O)O[C@H]1[C@@H](OC(C)=O)[C@](C#N)(c2ccc3c(N)ncnn23)O[C@@H]1COC(=O)N1CCCCC1 [Compound 21, [(2R,3R,4R,5R)-3,4-diacetoxy-5-(4-aminopyrrolo[2,1-f][1,2,4]triazin-7-yl)-5-cyano-tetrahydrofuran-2-yl]methyl piperidine-1-carboxylate] | > 50000 | > 50 | > 50 | 0.0112 | ≤ 0.0333 | 11.334 | 3.99 | 19.68 | 370 (≈ 761 µM)
COC(=O)c1cn(C(=O)OC[C@H]2O[C@@](C#N)(c3ccc4c(N)ncnn34)[C@H](O)[C@@H]2O)c2ccccc12 [Compound 1, O1-[[(2R,3S,4R,5R)-5-(4-aminopyrrolo[2,1-f][1,2,4]triazin-7-yl)-5-cyano-3,4-dihydroxy-tetrahydrofuran-2-yl]methyl]O3-methyl indole-1,3-dicarboxylate] | 5590 | 4.73 | > 50 | 2.05 | – | 645.34 | 0.69 | 12.34 | 100 (≈ 203 µM)
CCOC(=O)c1cccn1C(=O)OC[C@H]1O[C@@](C#N)(c2ccc3c(N)ncnn23)[C@H](OC(C)=O)[C@@H]1OC(C)=O [Compound 20, O1-[[(2R,3R,4R,5R)-3,4-diacetoxy-5-(4-aminopyrrolo[2,1-f][1,2,4]triazin-7-yl)-5-cyano-tetrahydrofuran-2-yl]methyl]O2-ethyl pyrrole-1,2-dicarboxylate] | 731 | 4.28 | > 50 | 0.0104 | ≤ 0.0333 | 67.544 | 3.16 | 9.63 | 10 (≈ 18.5 µM)
CC(C)NC(=O)OC[C@H]1O[C@@](C#N)(c2ccc3c(N)ncnn23)[C@H](O)[C@@H]1O [Compound 8, [(2R,3S,4R,5R)-5-(4-aminopyrrolo[2,1-f][1,2,4]triazin-7-yl)-5-cyano-3,4-dihydroxy-tetrahydrofuran-2-yl]methyl N-isopropylcarbamate] | > 50000 | 31.9 | > 50 | 13.1 | ≥ 9.87 | – | 0.11 | 0.79 | > 13000
N#C[C@@]1(c2ccc3c(N)ncnn23)O[C@H](COC(=O)n2cc(C(=O)OC3CCOCC3)c3ccccc32)[C@@H](O)[C@H]1O [Compound 2, O1-[[(2R,3S,4R,5R)-5-(4-aminopyrrolo[2,1-f][1,2,4]triazin-7-yl)-5-cyano-3,4-dihydroxy-tetrahydrofuran-2-yl]methyl]O3-tetrahydropyran-4-yl indole-1,3-dicarboxylate] | 14100 | 5.52 | > 50 | 7.93 | – | 1055.4 | 0.33 | 13.49 | 140 (≈ 249 µM)
CC(=O)O[C@H]1[C@@H](OC(C)=O)[C@](C#N)(c2ccc3c(N)ncnn23)O[C@@H]1COC(=O)N1CCCCCCC1 [Compound 19, [(2R,3R,4R,5R)-3,4-diacetoxy-5-(4-aminopyrrolo[2,1-f][1,2,4]triazin-7-yl)-5-cyano-tetrahydrofuran-2-yl]methyl azocane-1-carboxylate] | 18000 | 31.5 | > 50 | 0.0127 | ≤ 0.0333 | 14.703 | 6.33 | 13.32 | 110 (≈ 214 µM)
N#C[C@@]1(c2ccc3c(N)ncnn23)O[C@H](COC(=O)N2CCCCC2)[C@@H](O)[C@H]1O [Compound 13, [(2R,3S,4R,5R)-5-(4-aminopyrrolo[2,1-f][1,2,4]triazin-7-yl)-5-cyano-3,4-dihydroxy-tetrahydrofuran-2-yl]methyl piperidine-1-carboxylate] | > 50000 | > 50 | > 50 | ≥ 13.2 | ≥ 9.87 | 1584 | 0.3 | 6.39 | 4480 (≈ 11100 µM)
